Source: patent US20190008154A1 (priority 2015, published 2019)
Values joined by “and” are separate entries in the source; they are usually repeats but may differ in a detail not shown here. Identical values can stand only once.

Tested on: P[…] (PYRIOR)
Set-up: species or system Pyricularia oryzae
Details: in vivo

SMILES: Cc1cccc2sc3nncn3c12 [TCA, 5-methyl-1,2,4-triazolo[3,4-b][1,3]benzothiazole]
- PYRIOR (% DC) Observed: 100% and 95% and 50.2%
